Data as given in patent US9938240B2, “Fluorinated derivatives of 3-hydroxypyridin-4-ones” (Apotex Technologies Inc., priority 2009, dated 2018).

Key:
[1] = system: SH-SY5Y human neuroblastoma cells; settings: for CC2 (cytotoxic concentration): H2O2-treated cells, viability below 80%; for CC1 (cytotoxic concentration): absence of H2O2, viability below 80%
How it was run: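 SH-SY5Y cells were treated with a range of compound concentrations, with or without 50 μM H2O2, in serum-free medium for 16–22 h. Viability was measured by MTT and expressed relative to cells receiving neither H2O2 nor compound. Runs without H2O2 assessed cytotoxicity.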

[2] = pKa determination by potentiometric titration; assay type: physicochemical
Procedure: The pKa values of ligands were determined by potentiometric titration when a ligand concentration >1×10^−2 M in water could be prepared. In a typical experiment, the sample solution (1.00×10^−2 M) was prepared by the following method: Apo7041 (125.4 mg) was weighed into a 50 mL volumetric flask, and about 40 mL of 0.1 M NaCl was added. The mixture was sonicated for 10 min to give a clear colorless solution. More of the 0.1 M NaCl was added to volume and the resulting solution was vortexed to mix. 40 mL of the solution was transferred into a T70 titration cell by using a 10 mL digital pipet A 6.000 N sodium hydroxide solution (127 μL, 1.9 equiv) was added, and the pH (11.82) of the solution was recorded. The solution was allowed to equilibrate at 22° C. for 5 min.
The solution was then titrated against a 6.000 N hydrochloric acid solution at 22° C. by using a Mettler Toledo T70 autotitrator, until the pH reached 1.5. The volume of acid added and the pH reading were recorded. Thus, 501 measurements were taken for this experiment.
The data set of pH vs. acid volume was analyzed using Hyperquad 2000 software (version 2.1, Peter Gans, University of Leeds). The pKa values were obtained using the model: L^−+H^+⇄LH (pKa1), LH+H^+⇄LH2^+, and LH2^++H^+⇄LH3^2+ (pKa3).
The pKa values of Apo7041 in the same mixed solvent were also determined by potentiometric titration using the procedure described in Example 1.

[3] = pKa determination by spectrophotometric titration; assay type: physicochemical; settings: for pKa: 0.1 M NaCl solution, read-out: pKa (amine); for Logβ011 / Logβ012 / Logβ013: cumulative ligand protonation; for Logβ011 / Logβ012 / Logβ013 / pKa1(L) / pKa2(L) / pKa3(L): Example 53; for pKa1(L) / pKa2(L) / pKa3(L): ligand, spectrophotometric titration
Procedure: The pKa values of ligands can be determined by spectrophotometric titration when both the conjugated acid and base absorb in the UV-visible region. In a typical experiment, the sample solution was prepared by the following method: Apo7041 stock solution (12.74 mg) was weighed into a 10 mL volumetric flask, and 0.1 M NaCl solution was added to volume. The mixture was sonicated and voltexed to give a clear colorless solution. The concentration of Apo7041 of this stock solution is 5.1×10^−3 M.
Apo7041 sample solution: 727 μL of the above stock solution was transferred into a 50 mL volumetric flask by using a 1000 μL digital pipet, and 0.1 M NaCl was added to volume. The resulting solution was vortexed to mix to give a sample solution. The concentration of Apo7041 of this sample solution is 7.4×10^−5 M. 20 mL of the sample solution was transferred into a 35 mL beaker by using a 10 mL digital pipet. The sample solution was circulated between the beaker and the flow cell using a sipper system.
The sample solution was titrated against standard hydrochloric acid solutions at 22° C. to reach pH 1.11. After each addition of acid the solution was allowed to equilibrate until a constant pH reading was reached. The pH and the UV-Vis spectrum were recorded for each measurement. The solution was titrated until there was no obvious change in the spectra after several subsequent additions of acid. Thus, 30 measurements were recorded.
The resulting data set was then analyzed using pHAB (Peter Gans, University of Leeds). The pKa values were obtained using the model: LH+H^+⇄LH2^+, and LH2^++H^+⇄LH3^2+ (pKa3). Thus, Apo7041 has pKa2=3.51, and pKa3=1.23 as determined spectrophotometrically.
The pKa values of Apo7323 were determined by spectrophotometric titration using an Agilent 8453 UV-visible spectroscopy system (see Example 26).

[4] = Distribution coefficient determination, D7.4 (1-octanol / K2HPO4 buffer); assay type: physicochemical; settings: 1-octanol / K2HPO4 buffer 50 mM pH 7.4
Procedure: K2HPO4 buffer (50 mM, pH=7.4) and 1-octanol were used as the aqueous phase and the organic phase, respectively. The K2HPO4 buffer and 1-octanol were mixed, and pre-saturated with each other before use.
In a typical experiment, an aqueous solution of Apo6995 (3-hydroxy-2-methyl-1-(2,2,2-trifluoroethyl)pyridin-4(1H)-one) was prepared by weighing out 3 mg of the compound into a 10-mL test-tube. It was then mixed with K2HPO4 buffer (2 mL) and sonicated for 30 minutes with frequent vortexing. The solution was then filtered through HPLC syringe filter (4 mm PVDF syringe filter 0.45 μM) to obtain the aqueous solution.
One mL of this aqueous solution was pipetted out into another 10-mL test-tube and mixed with 1 mL of 1-octanol. The mixture was then vortexed for 1 hour. The solution was centrifuged at 2000 rpm for 10 minutes. A small amount of the lower aqueous layer was carefully pipetted out and analyzed by HPLC to obtain the peak height (HF). The distribution coefficient, D7.4, was calculated using the following equation: D7.4=(HI−HF)/HF.

[5] = 0.1M aqueous NaCl/MeOH, 1/1, v/v
[6] = potentiometric, 0.1 M NaCl, 22° C.
[7] = spectrophotometric, 0.1 M NaCl, 22° C.
[8] = 0.1M aqueous NaCl (Table 1, Fe3+ chelation, footnote b)

SMILES	CC2 (cytotoxic concentration) [1] [µM]	CC1 (cytotoxic concentration) [1] [µM]	pKa ([3]; amino group of the ligand)	D7.4 [4]	Logβ011 [3]	Logβ012 [3]	Logβ013 [3]	pKa1(L) [3]	pKa2(L) [3]	pKa3(L) [3]	further results
CN(C)C(c1c(O)c(=O)ccn1C)C(F)(F)F (centres unmarked) [Apo7041, 2-[1-(dimethylamino)-2,2,2-trifluoroethyl]-3-hydroxy-1-methylpyridin-4(1H)-one]	320	160	3.5	–	–	–	–	–	–	–	pKa1 + pKa2 ([2]; 0.1 M NaCl): 12.91; pKa1 + pKa2 + pKa3 ([2]; 0.1 M NaCl): 14.57; pKa1 + pKa2 + pKa3 [2, 5]: 15.3; pKa3 [2, 5]: pKa3 = 2.0; pKa1 ([2]; 0.1M aqueous NaCl/MeOH, 1/1, v/v, listed as drawing 104): pKa1 = 10.1; pKa1 [2, 6]: 9.39; pKa2 [2, 6]: 3.52; pKa3 [2, 6]: 1.66; pKa (amine) ([3]; amino group of the ligand): 3.51; pKa2 [3, 7]: 3.51; pKa3 [3, 7]: 1.23
CN(C)Cc1c(O)c(=O)ccn1CC(F)(F)F [Apo7067, 2-[(dimethylamino)methyl]-3-hydroxy-1-(2,2,2-trifluoroethyl)pyridin-4(1H)-one]	>640	160	6.1	2.82	9.6	15.7	16.5	9.6	6.1	0.8	logD ([4]; read-out: Log D7.4): 0.45
CNC(c1cn(C)c(C)c(O)c1=O)C(F)(F)F (centres unmarked) [Apo7056, 3-Hydroxy-1,2-dimethyl-5-[2,2,2-trifluoro-1-(methylamino)ethyl]pyridin-4(1H)-one]	–	–	–	–	9.8	14.7	15.1	9.8	4.9	0.4	–
O=c1ccn(CC(F)(F)F)c(CN2CCOCC2)c1O [Apo7323, 3-hydroxy-2-(morpholinomethyl)-1-(2,2,2-trifluoroethyl)pyridin-4(1H)-one]	320	160	4.2	–	9.2	13.4	14.2	9.2	4.2	0.8	–
Cc1c(O)c(=O)ccn1C [Deferiprone, 3-hydroxy-1,2-dimethylpyridin-4(1H)-one, reference compound]	–	–	–	0.17	–	–	–	–	–	–	Log D7.4 [4]: −0.77; pKa1 [2, 8]: pKa1 = 9.92; pKa2 [2, 8]: pKa2 = 3.55
Cc1c(O)c(=O)c(C(N2CCOCC2)C(F)(F)F)cn1C (centres unmarked) [Apo7435, 3-hydroxy-1,2-dimethyl-5-(2,2,2-trifluoro-1-morpholinoethyl)pyridin-4(1H)-one]	320	80	2.5	–	9.8	12.3	12.3	9.8	2.5	0.0	–
